Here are results for nine compounds from EP3825318A1, “OXALAMIDO-SUBSTITUTED TRICYCLIC INHIBITORS OF HEPATITIS B VIRUS” (priority 2019, dated 2021).

The assay deals with HBV. The assay can be described thus: Anti-HBV activity in vitro: extracellular HBV DNA by qPCR in HepAD38 cells. To be noted: Hepatitis B virus, 96 hours incubation, extracellular HBV DNA by direct qPCR, read-out: HBV inh EC50. It counts as cell-based. The source says:
HepAD38 cell line (Ladner et al., Antimicrob Agents Chemother, 1997, 41, 1715-20) was used for HBV inhibition assays. HepAD38 is a subclone, derived from Hepatoblastoma cell line HepG2 (ATCC® Number: HB-8065™), that expresses HBV genome under the transcriptional control of a tetracycline-responsive promoter in a TET-OFF system: addition of tetracycline (TET) or doxycycline suppresses HBV replication, while its removal switches on the process allowing HBV viral particles release in the cell supernatant. HepAD38 cell line is maintained in DMEM/F12, supplemented with 10% of fetal bovine serum, 1% of glutamine, 1% of penicillin/streptomycin, 0.4 mg/ml G418 and 0,3 ug/ml tetracycline. For the HBV inhibition assay, doxycycline-free medium is used in order to allow virion production.
HBV inhibition activity in vitro was performed in 96 multiwell plates. During the initial (primary) screening, compounds were first tested in triplicates at concentrations of 0.02 µM, 0.1µM, 0.5µM and 1µM. For selected compounds, an 8-point dose-response curve was obtained using 1:2 serial dilutions (starting from 0.01µM, 0.1µM, 0.4µM or 5 µM, depending on the degree of inhibition observed during the primary screening). From the dose-response curves, half maximal effective concentration (EC50) could be calculated (see also below).
In more detail, compounds - typically dissolved in DMSO stock solutions - were diluted to 2x the final desired concentration in 100 µl of the above medium (without doxycycline) and plated in three replicates in the 96-well plates.
Simultaneously, HepAD38 cells - extensively pre-washed in tetracycline-free medium in order to induce HBV production - were suspended at 2^∗10^4 cells in 100 µl of tetracycline-free medium and added to each well of the plate, to yield a final assay volume of 200 µl DMSO - used for stock solutions and compounds dilutions - which was always present in the assays at a final concentration of 0.5%.
Plates were then incubated 96 hours at 37°C and then subjected to cell viability assays and extracellular HBV quantification, in order to evaluate both the cytotoxic potential and the antiviral activity of compounds. Cytotoxicity was assessed by a commercial fluorescence assay that measures the metabolic activity of cells, directly related to cell viability (Cell Titer Blue, Promega). Anti-HBV activity was evaluated by quantification of extracellular HBV DNA with direct qPCR. In particular, supernatant was collected and centrifuged for cell debris clarification, viral DNA was extracted from virions by addition of lysis buffer (1 mM 1,4-dithiothreitol, 0.2% sodium dodecyl sulphate) and incubated at 95°C for 10 min. Samples were then diluted 1:40 and real time PCR amplification was performed with SYBR green assay (Power SYBR™ Green PCR Master Mix-Thermo Fisher Scientific) and specific HBV primer (HBV-DF:5'-[…]-3' (SEQ ID No. 1), HBV-DR:5'-[…]-3' (SEQ ID No. 2)).
Antiviral activity data for each compound are reported as EC50 threshold value (see Table 1 legend). Excel and Graphpad Prism programs are typically used for data elaboration and EC50 calculation.
In general terms: Quantitative PCR measures a nucleic acid by following its amplification.
As a reminder, the EC50 is the concentration giving half of the maximal effect. On to `C[C@@H](NC(=O)C(=O)N1C[C@H]2COc3c(c(Cl)n(C)c3C(=O)Nc3ccc(F)c(F)c3)S(=O)(=O)N[C@H]2C1)C(F)(F)F` [Example E6, (3aR,10aR)-6-chloro-N-(3,4-difluorophenyl)-7-methyl-2-(2-oxo-2-(((R)-1,1,1-trifluoropropan-2-yl)amino)acetyl)-2,3,3a,4,10,10a-hexahydro-1H,7H-dipyrrolo[3,4-b:3',4'-f][1,4,5]oxathiazocine-8-carboxamide 5,5-dioxide], for which the EC50 was less than 500 nM.

As to `Cc1cc(NC(=O)c2c3c(c(Cl)n2C)S(=O)(=O)N[C@H]2CN(C(=O)C(=O)N[C@H](C)C(F)(F)F)C[C@H]2CO3)ccc1F` [Example E9, (3aR,10aR)-6-chloro-N-(4-fluoro-3-methylphenyl)-7-methyl-2-(2-oxo-2-(((R)-1,1,1-trifluoropropan-2-yl)amino)acetyl)-2,3,3a,4,10,10a-hexahydro-1H,7H-dipyrrolo[3,4-b:3',4'-f][1,4,5]oxathiazocine-8-carboxamide 5,5-dioxide], the EC50 was less than 500 nM.

With `C[C@@H](NC(=O)C(=O)N1C[C@H]2COc3c(cn(C)c3C(=O)Nc3ccc(F)c(F)c3)S(=O)(=O)N[C@H]2C1)C(F)(F)F` [Example E2, (3aR,10aR)-N-(3,4-difluorophenyl)-7-methyl-2-(2-oxo-2-(((R)-1,1,1-trifluoropropan-2-yl)amino)acetyl)-2,3,3a,4,10,10a-hexahydro-1H,7H-dipyrrolo[3,4-b:3',4'-f][1,4,5]oxathiazocine-8-carboxamide 5,5-dioxide], the EC50 is less than 500 nM.

As for `C[C@@H](NC(=O)C(=O)N1C[C@H]2COc3c(c(Cl)n(C)c3C(=O)Nc3ccc(F)c(C(F)(F)F)c3)S(=O)(=O)N[C@H]2C1)C(F)(F)F` [Example E8, (3aR,10aR)-6-chloro-N-(4-fluoro-3-(trifluoromethyl)phenyl)-7-methyl-2-(2-oxo-2-(((R)-1,1,1-trifluoropropan-2-yl)amino)acetyl)-2,3,3a,4,10,10a-hexahydro-1H,7H-dipyrrolo[3,4-b:3',4'-f][1,4,5]oxathiazocine-8-carboxamide 5,5-dioxide], the EC50 is less than 500 nM.

As for `C[C@@H](NC(=O)C(=O)N1C[C@H]2COc3c(c(Cl)n(C)c3C(=O)Nc3ccc(F)c(C(F)F)c3)S(=O)(=O)N[C@H]2C1)C(F)(F)F` [Example E7, (3aR,10aR)-6-chloro-N-(3-(difluoromethyl)-4-fluorophenyl)-7-methyl-2-(2-oxo-2-(((R)-1,1,1-trifluoropropan-2-yl)amino)acetyl)-2,3,3a,4,10,10a-hexahydro-1H,7H-dipyrrolo[3,4-b:3',4'-f][1,4,5]oxathiazocine-8-carboxamide 5,5-dioxide], the EC50 was less than 500 nM.

For the compound `C[C@@H](NC(=O)C(=O)N1C[C@H]2COc3c(cn(C)c3C(=O)Nc3ccc(F)c(C(F)(F)F)c3)S(=O)(=O)N[C@H]2C1)C(F)(F)F` [Example E4, (3aR,10aR)-N-(4-fluoro-3-(trifluoromethyl)phenyl)-7-methyl-2-(2-oxo-2-(((R)-1,1,1-trifluoropropan-2-yl)amino)acetyl)-2,3,3a,4,10,10a-hexahydro-1H,7H-dipyrrolo[3,4-b:3',4'-f][1,4,5]oxathiazocine-8-carboxamide 5,5-dioxide], the EC50 was less than 500 nM.

As to `C[C@@H](NC(=O)C(=O)N1C[C@H]2COc3c(c(Cl)n(C)c3C(=O)Nc3ccc(F)c(Cl)c3)S(=O)(=O)N[C@H]2C1)C(F)(F)F` [Example E5, (3aR,10aR)-6-chloro-N-(3-chloro-4-fluorophenyl)-7-methyl-2-(2-oxo-2-(((R)-1,1,1-trifluoropropan-2-yl)amino)acetyl)-2,3,3a,4,10,10a-hexahydro-1H,7H-dipyrrolo[3,4-b:3',4'-f][1,4,5]oxathiazocine-8-carboxamide 5,5-dioxide], the EC50 is less than 500 nM.

As to `C[C@@H](NC(=O)C(=O)N1C[C@H]2COc3c(cn(C)c3C(=O)Nc3ccc(F)c(Cl)c3)S(=O)(=O)N[C@H]2C1)C(F)(F)F` [Example E1, (3aR,10aR)-N-(3-chloro-4-fluorophenyl)-7-methyl-2-(2-oxo-2-(((R)-1,1,1-trifluoropropan-2-yl)amino)acetyl)-2,3,3a,4,10,10a-hexahydro-1H,7H-dipyrrolo[3,4-b:3',4'-f][1,4,5]oxathiazocine-8-carboxamide 5,5-dioxide], the EC50 is less than 500 nM.

For the compound `C[C@@H](NC(=O)C(=O)N1C[C@H]2COc3c(cn(C)c3C(=O)Nc3ccc(F)c(C(F)F)c3)S(=O)(=O)N[C@H]2C1)C(F)(F)F` [Example E3, (3aR,10aR)-N-(3-(difluoromethyl)-4-fluorophenyl)-7-methyl-2-(2-oxo-2-(((R)-1,1,1-trifluoropropan-2-yl)amino)acetyl)-2,3,3a,4,10,10a-hexahydro-1H,7H-dipyrrolo[3,4-b:3',4'-f][1,4,5]oxathiazocine-8-carboxamide 5,5-dioxide], the EC50 was less than 500 nM.
